Values of other authors, collected in article PMC9762682, “Tocotrienols: Exciting Biological and Pharmacological Properties of Tocotrienols and Naturally Occurring Compounds, Part II” (Annals of clinical case reports, 2022).
Like-named read-outs stand apart in the source and are kept apart here. Marks after values point to notes of the source that are not given here.

Key:
[1] = set-up: method as in ref 16 = [16]; PMID 27493840; doi:10.4172/2155-9880.1000434; 16. Qureshi AA , Khan DA , Silswal N , Saleem S , Qureshi N . Evaluation of pharmacokinetics and bioavailability of higher doses of δ-tocotrienol in healthy fed humans . J Clin Exp Cardiol . 2016; 7
[2] = set-up: method as in ref 14 = [14]; PMID 27493840; doi:10.4172/2155-9880.1000434; 14. Qureshi AA , Khan DA , Saleem S , Silswal N , Trias AM , Tan B , Pharmacokinetics and bioavailability of Annatto δ-tocotrienol in healthy fed subjects . J Clin Exp Cardiol . 2015; 6 : 11 . 10.417; conditions: for time of appearance in the plasma: after δ-tocotrienol administration to well-fed subjects; for Elimination of Half-life time (t1/2) / Elimination rate constant (ke) / Plasma Peak Concentration (Cmax) / Time to achieve plasma peak (Tmax): healthy fed subjects
[3] = 0 Hr., single dose 750 mg δ-tocotrienol
[4] = 0 Hr., single dose 1000 mg δ-tocotrienol
[5] = 1 hr., single dose 750 mg δ-tocotrienol
[6] = 1 hr., single dose 1000 mg δ-tocotrienol
[7] = 2 hr., single dose 750 mg δ-tocotrienol
[8] = 2 hr., single dose 1000 mg δ-tocotrienol
[9] = 4 hr., single dose 750 mg δ-tocotrienol
[10] = 4 hr., single dose 1000 mg δ-tocotrienol
[11] = 6 hr., single dose 750 mg δ-tocotrienol
[12] = 6 hr., single dose 1000 mg δ-tocotrienol
[13] = 8 hr., single dose 750 mg δ-tocotrienol
[14] = 8 hr., single dose 1000 mg δ-tocotrienol
[15] = single dose 750 mg δ-tocotrienol
[16] = single dose 1000 mg δ-tocotrienol
[17] = plasma tocol after single 125 mg δ-tocotrienol dose
[18] = plasma tocol after single 250 mg δ-tocotrienol dose
[19] = plasma tocol after single 500 mg δ-tocotrienol dose
[20] = plasma tocol after single dose 750 mg δ-tocotrienol
[21] = plasma tocol after single dose 1000 mg δ-tocotrienol

| Structure (SMILES) | plasma tocol level [1, 3] | plasma tocol level [1, 4] | plasma tocol level [1, 5] | plasma tocol level [1, 6] | plasma tocol level [1, 7] | plasma tocol level [1, 8] | plasma tocol level [1, 9] | plasma tocol level [1, 10] | plasma tocol level [1, 11] | plasma tocol level [1, 12] | plasma tocol level [1, 13] | plasma tocol level [1, 14] | Total tocols (sum of 0-8 h) [1, 15] | Total tocols (sum of 0-8 h) [1, 16] | time of appearance in the plasma [2] | Elimination of Half-life time (t1/2) [2, 17] | Elimination rate constant (ke) [2, 17] | Plasma Peak Concentration (Cmax) [2, 17] | Time to achieve plasma peak (Tmax) [2, 17] | Elimination of Half-life time (t1/2) [2, 18] | further results |
| --- | --- | --- | --- | --- | --- | --- | --- | --- | --- | --- | --- | --- | --- | --- | --- | --- | --- | --- | --- | --- | --- |
| Cc1cc(O)cc2c1O[C@](C)(CCC[C@H](C)CCC[C@H](C)CCCC(C)C)CC2 [δ-Tocopherol] | 894 ± 69 ng/mL | 888 ± 22 ng/mL | 949 ± 11 ng/mL | 986 ± 18 ng/mL | 1195 ± 69 ng/mL | 1266 ± 25 ng/mL | 1348 ± 93 ng/mL | 1473 ± 71 ng/mL | 726 ± 51 ng/mL | 765 ± 44 ng/mL | 432 ± 45 ng/mL | 500 ± 25 ng/mL | 5544 ng/mL | 5878 ng/mL | > 2 h | 3.25 ± 0.79^a h | 0.118 ± 0.032^a h-1 | 341.18 ± 62.19^a ng/mL | 6.00 h | 5.22 ± 0.62^b h | Total tocols (sum of 0-8 h) ([1]; single dose 750 mg δ-tocotrienol, listed as δ-tocopherol): 13117 ng/mL; Elimination rate constant (ke) [2, 18]: 0.076 ± 0.008^b h-1; Plasma Peak Concentration (Cmax) [2, 18]: 756.27 ± 72.70^b ng/mL; Time to achieve plasma peak (Tmax) [2, 18]: 4.18 ± 0.60 h; Elimination of Half-life time (t1/2) [2, 19]: 3.58 ± 0.67^a h; Elimination rate constant (ke) [2, 19]: 0.183 ± 0.027^c h-1; Plasma Peak Concentration (Cmax) [2, 19]: 1027.73 ± 71.93^c ng/mL; Time to achieve plasma peak (Tmax) [2, 19]: 3.00 h |
| Cc1c(O)cc2c(c1C)O[C@](C)(CCC[C@H](C)CCC[C@H](C)CCCC(C)C)CC2 [γ-Tocopherol] | 319 ± 30 ng/mL | 330 ± 34 ng/mL | 404 ± 44 ng/mL | 412 ± 17 ng/mL | 433 ± 26 ng/mL | 457 ± 33 ng/mL | 547 ± 12 ng/mL | 589 ± 39 ng/mL | 273 ± 67 ng/mL | 241 ± 28 ng/mL | 212 ± 16 ng/mL | 183 ± 14 ng/mL | 2188 ng/mL | 2212 ng/mL | > 2 h | 2.45 ± 0.37^a h | 0.184 ± 0.121^a h-1 | 507.64 ± 24.68^a ng/mL | 5.46 ± 0.93 h | 5.17 ± 1.06^b h | Total tocols (sum of 0-8 h) ([1]; single dose 750 mg δ-tocotrienol, listed as γ-tocopherol): 5544 ng/mL; Elimination rate constant (ke) [2, 18]: 0.146 ± 0.013^b h-1; Plasma Peak Concentration (Cmax) [2, 18]: 643.36 ± 37.26^b ng/mL; Time to achieve plasma peak (Tmax) [2, 18]: 3.00 h; Elimination of Half-life time (t1/2) [2, 19]: 4.99 ± 0.88^b h; Elimination rate constant (ke) [2, 19]: 0.126 ± 0.026^a h-1; Plasma Peak Concentration (Cmax) [2, 19]: 605.64 ± 48.17^b ng/mL; Time to achieve plasma peak (Tmax) [2, 19]: 2.82 ± 0.41 h |
| Cc1cc(O)c(C)c2c1O[C@](C)(CCC[C@H](C)CCC[C@H](C)CCCC(C)C)CC2 [β-Tocopherol] | 542 ± 11 ng/mL | 639 ± 38 ng/mL | 525 ± 54 ng/mL | 763 ± 69 ng/mL | 599 ± 14 ng/mL | 1025 ± 58 ng/mL | 704 ± 29 ng/mL | 1525 ± 32 ng/mL | 621 ± 28 ng/mL | 717 ± 56 ng/mL | 278 ± 16 ng/mL | 516 ± 51 ng/mL | 3269 ng/mL | 5185 ng/mL | > 2 h | 1.82 ± 0.23 h | 1.247 ± 0.073^a h-1 | 956.09 ± 70.06^a ng/mL | 5.18 ± 1.17 h | 3.97 ± 0.66^a h | Elimination rate constant (ke) [2, 18]: 0.489 ± 0.063^b h-1; Plasma Peak Concentration (Cmax) [2, 18]: 949.91 ± 126.37^a ng/mL; Time to achieve plasma peak (Tmax) [2, 18]: 3.09 ± 0.30 h; Elimination of Half-life time (t1/2) [2, 19]: 3.27 ± 0.61^a h; Elimination rate constant (ke) [2, 19]: 0.275 ± 0.023^c h-1; Plasma Peak Concentration (Cmax) [2, 19]: 1045.09 ± 147.81^a ng/mL; Time to achieve plasma peak (Tmax) [2, 19]: 3.09 ± 0.32 h |
| CC(C)=CCC/C(C)=C/CC/C(C)=C/CC[C@]1(C)CCc2c(C)c(O)cc(C)c2O1 [β-Tocotrienol] | 1145 ± 61 ng/mL | 1220 ± 93 ng/mL | 1565 ± 62 ng/mL | 1516 ± 21 ng/mL | 1568 ± 77 ng/mL | 1830 ± 91 ng/mL | 1885 ± 91 ng/mL | 1937 ± 72 ng/mL | 1538 ± 22 ng/mL | 1315 ± 48 ng/mL | 137 ± 102 ng/mL | 519 ± 20 ng/mL | 7838 ng/mL | 8337 ng/mL | > 2 h | 3.92 ± 0.86^a h | 0.542 ± 0.062^a h-1 | 979.00 ± 79.45^a ng/mL | 4.00 h | 3.90 ± 0.79^a h | Area Under the Curve-t0 - t8 (AUC0-8) [1, 20]: 11473.96 ± 316.15^c ng/ml; Area Under the Curve-t0 - ∞ (AUC0-∞) [1, 20]: 11709.23 ± 459.66^c ng/ml; Elimination of Half-life time (t1/2) [1, 20]: 1.02 ± 0.34^c h; Elimination rate constant (ke) [1, 20]: 0.681 ± 0.103^b h-1; Peak Plasma Concentration (Cmax) [1, 20]: 1885.20 ± 90.95^c ng/ml; Time to achieve plasma peak (Tmax) [1, 20]: 4.00 ^a h; Elimination of Half-life time (t1/2) [1, 21]: 2.11 ± 0.03^b h; Elimination rate constant (ke) [1, 21]: 0.327 ± 0.167^a h-1; Peak Plasma Concentration (Cmax) [1, 21]: 1948.13 ± 66.43^c ng/ml; Time to achieve plasma peak (Tmax) [1, 21]: 3.33 ± 1.16^a h; Elimination rate constant (ke) [2, 18]: 0.404 ± 0.032^b h-1; Plasma Peak Concentration (Cmax) [2, 18]: 1083.73 ± 82.26^b ng/mL; Elimination of Half-life time (t1/2) [2, 19]: 4.39 ± 0.63^a h; Elimination rate constant (ke) [2, 19]: 0.192 ± 0.014^c h-1; Plasma Peak Concentration (Cmax) [2, 19]: 1279.00 ± 116.44^c ng/mL; Time to achieve plasma peak (Tmax) [2, 19]: 3.00 h |
